Measurements from patent US11993594B2, “IRAK inhibitors and method for making and using” (Rigel Pharmaceuticals, Inc., priority 2016, dated 2024).
Where a name gives a salt, the structure may show the parent alone. Read-outs that look alike come from different tables or passages of the source.

Legend:
[1] = tested on: LPS induced IL-23 (p19/p40) in DC cells; experiment: IL23-p19 ELISA, dendritic (DC) cells differentiated from human PBMC, LPS stimulated; format: cell-based; conditions: LPS 1 μg/ml, 18 hours, 10 pt
Procedure: Compound Screening Using DC Cells
Human PBMC cells (400 million) obtained from the vendor were transferred into a T-175 flask containing 15 ml RPMI media (10% FBS) and incubate for 2 hours at 37° C. After 2 hours, the media including floating cells was aspirated out carefully and 12 ml of fresh RPMI media (10% FBS) containing GMCSF (100 ng/ml) and IL4 (20 ng/ml) was added, and the flask was kept in a 37° C. incubator for 7 days.
After 3 days, fresh GMCSF (100 ng/ml) and IL4 (20 ng/ml) were added to the flask and the incubation continued. After 7 days, the fully differentiated cells were harvested by spinning down (1200 rpm/5 min) and aspirating the media. The cells were suspended in fresh RPMI media (10% FBS) containing 50 ng/ml IFNγ (1000 U/ml) and then plated (50K/well in 100 μl) onto a white clear bottom 96 well plate and left in a 37° C. incubator for 24 hours.
After 24 hours incubation, 100 μl of RPMI media was added containing 2× concentrated test compound per well to the above cell-culture media (final concentration becomes 1×) and the plates were pre-incubated for 1 hour at 37° C. before stimulating with LPS.
After 1 hour compound pre-incubation, 10 μl per well of 20× concentrated LPS solution in RPMI media was added to give a final concentration of 1 μg/ml. The mixture was shaken and incubated the plates at 37° C. for an additional 18 hours.
155 μl of the supernatant was harvested from each well carefully (without the tip touching the bottom of the well) and to the remaining 50 μl/well of the cell culture plate was added 50 μl of Cell Titer Glo reagent. The mixture was incubated for 1-2 minutes on a shaker and the plate was read for luminescence intensity to determine the compound cytotoxicity. The cell culture supernatant collected above was used to carry out IL23 ELISA (65 μl—Supernatant) and IL10 ELISA (90 μl—Supernatant) as described below.
Human IL-23 (p19/p40) ELISA Protocol (e-Biosciences)
To 10.5 ml PBS add 50 μl of anti-IL23 (p19) was added capture antibody (2.5 μg/ml). The mixture was mixed well and 100 μl of the coating solution was added to each well of the 96 well white plates from Pierce. The wells were covered and incubated overnight at 4° C.
The anti-IL23 (p19)-antibody-coated plates were washed 2× using TBST (use plate washer) and blocked using 200 μl of 0.5% Casein for 1.5 to 2 hours at room temperature with shaking.
The plates were washed 2× using TBST and the supernatant was transferred (65 μl/well) to the above pre-blocked/IL23(p19)-antibody-coated 96 well plate, and incubated at room temperature for 1.5 hours with shaking.
The plates were washed 4× using TBST (plate washer) and 100 μl/well detection antibody solution prepared from 2 μl of biotin labeled anti-IL-12 (p40/p70) antibody in 11 ml 1% BSA/PBS solution (1-5000 dilution) was added. The plates were incubated for 1 hour with shaking at Room temperature.
Again, the plates were washed 4× with TBST and 100 μl of HRP labeled Streptavidin (R&D Systems) solution (10 μl/10 ml 1% BSA solution) was added, and the plates were incubated at room temperature for another 45 minutes with shaking.
After 45 minutes, the plates were washed with TBST 4× and 100 μl/well Super Signal ELISA Pico Chemiluminescent Substrate from Pierce (3.5 ml A+3.5 ml B+3.5 ml MQ water) was added. The plates were shaken for 1-2 minutes then read on a plate reader. […]

[2] = tested on: LPS Induced IL23p19 in THP-1 Cells; experiment: LPS Induced IL23p19 in THP-1 Cells (with IFNγ Primed) Assay; format: cell-based, human; conditions: THP-1 cells primed with IFNγ 50 ng/mL, LPS 1 ug/mL, 18 hours, 10 pt, read-out: IL23-p19 ELISA, THP1-IFNγ, LPS, 10 pt EC50
Excerpt: LPS Induced IL23p19 in THP-1 Cells (with IFNγ Primed) Assay
THP-1 Cells (ATCC, Cat #TIB-202), Dimethyl Sulfoxide (DMSO) (Sigma-Aldrich, Cat #D2650), RPMI 1640 (Cellgro, Cat #10-040-CM), Fetal Bovine Serum (Sigma, Cat #F4135), Albumin From Bovine Serum (BSA) (Sigma-Aldrich, Cat #A7906), LPS (Serotype K-235, Sigma, Product Number L 2143), IFNγ (Peprotech, Cat #300-02) Capture antibody: Human IL-23p19 ELISA (e-Bioscience, Cat. #14-7238-85), Detection antibody: Primary Mouse Biotinylated anti-human IL-12(p40/p70) (e-Bioscience, Cat. #13-7129-85), Secondary HRP-conjugated Streptavidin (R&D Systems, Cat #DY998), 1×PBST Washing Buffer (PBS-Tween tablet) (VWR International, Cat #80058-558), ELISA Blocking Buffer (PBS with 1% BSA), ELISA Dilution Buffer (PBS with 1% BSA), 384 Well Flat-Bottom, MaxiSorp Black Immuno Plates (Thermo Scientific, Cat #12-565-346), 384 Well Flat-Bottom, White Tissue Culture Plates (Thermo Scientific, Cat #12-565-343), Super Signal ELISA Pico Chemiluminescent Substrate (Thermo Scientific, Cat #37070), Cell Titer Glo reagent (Promega, Cat #G7573), Positive control, IKK2VI inhibitor (Calbiochem, Cat #401483), AquaMax 4000 plate washer (Molecular Devices), Luminometer, Wallac Victor2 1420 Multilabel Counter.
On day 1, 50K/well THP-1 cells were seeded and primed with IFNγ (50 ng/mL) in 384-well plates for about 18 hours in RPMI media with 10% FBS. On day 2, the compound was serially diluted in DMSO from 5 mM in 3-fold dilutions, and then diluted 1:125 in RPMI media with 10% FBS. 50 μL/well 2× compound was added to 50 μL/well THP-1 cells (with IFNγ primed) in duplicate in 384 well tissue culture plates. The cells were pre-incubated with compound for 1 hour at 37° C., 5% CO2 before addition of 10 μL/well 11×LPS to give a final concentration of 1 ug/mL LPS. Day 3, after stimulation for 18 hours at 37° C., 5% CO2, the assay plate was centrifuged and 70 μL/well supernatant was harvested. IL-23p19 protein in 70 µL/well of supernatant was measured by sandwich ELISA, and 25 μl/well Cell Titer Glo reagent was added to the remaining cells to measure compound toxicity.
Human IL-23p19 Sandwich ELISA:
Maxisorp immuno ELISA plates were pre-coated with 25 μL/well of anti-IL-23p19 capture antibody (2.5 ug/mL) in PBS overnight at room temperature. After washing with 1×PBST, the plates were blocked using 100 μL/well of 1% BSA in PBS for 2 hours at room temperature. The plates were washed three times with 1×PBST and 70 μL/well supernatant were added. The plates were incubated at room temperature for 2 hours with shaking and washed three times with 1×PBST. 25 μL/well of biotin labeled anti-IL-12(p40/p70) detection antibody (100 ng/mL) in PBS with 1% BSA was added and the plates were incubated at room temperature for 2 hours with shaking. After washing three times with 1×PBST, 25 μL/well of streptavidin-HRP (1:200) in PBS with 1% BSA was added and the plates were incubated at room temperature for 20 minutes with shaking. The plates were washed three times with 1×PBST and 25 μL/well of Super Signal ELISA Pico Chemiluminescent Substrate were added. The plates were read with a luminometer, and the chemiluminescence values were entered into Athena (Rigel) for curve fitting, EC50 calculation, and database storage. […]

| SMILES | EC50 ([1]; Table 1, IFNγ 50 ng/ml) [nM] | EC50 ([2]; Homo sapiens, Table 1) [nM] | also measured |
| --- | --- | --- | --- |
| O=C(Nc1cn(C2CCC2)nc1-c1ccccn1)c1coc(-c2cn[nH]c2)n1 [Compound I-23, N-(1-cyclobutyl-3-(pyridin-2-yl)-1H-pyrazol-4-yl)-2-(1H-pyrazol-4-yl)oxazole-4-carboxamide] | – | – | EC50 ([1]; Table 3, IFNγ 50 ng/ml): 71 nM; EC50 ([2]; Table 3): 270 nM |
| COCCOCCn1cc(NC(=O)c2coc(-c3cn[nH]c3)n2)c(-c2ccccn2)n1 [Compound I-24, N-(1-(2-(2-methoxyethoxy)ethyl)-3-(pyridin-2-yl)-1H-pyrazol-4-yl)-2-(1H-pyrazol-4-yl)oxazole-4-carboxamide] | 217 | 238 | – |
| O=C(Nc1cn(CCOCC(F)F)nc1-c1ccccn1)c1coc(-c2cn[nH]c2)n1 [Compound I-25, N-(1-(2-(2,2-difluoroethoxy)ethyl)-3-(pyridin-2-yl)-1H-pyrazol-4-yl)-2-(1H-pyrazol-4-yl)oxazole-4-carboxamide] | – | – | EC50 ([1]; Table 3, IFNγ 50 ng/ml): 161 nM; EC50 ([2]; Table 3): 400 nM |
| CCO[C@H]1CC[C@H](n2cc(NC(=O)c3coc(-c4cn[nH]c4)n3)c(-c3nc(F)c(F)cc3F)n2)CC1 [Compound I-28, N-(1-((1r,4r)-4-ethoxycyclohexyl)-3-(3,5,6-trifluoropyridin-2-yl)-1H-pyrazol-4-yl)-2-(1H-pyrazol-4-yl)oxazole-4-carboxamide] | 111 | 474 | – |
| CCO[C@H]1CC[C@H](n2cc(NC(=O)c3coc(-c4cn[nH]c4)n3)c(-c3cc(F)cc(F)n3)n2)CC1 [Compound I-29, N-(3-(4,6-difluoropyridin-2-yl)-1-((1r,4r)-4-ethoxycyclohexyl)-1H-pyrazol-4-yl)-2-(1H-pyrazol-4-yl)oxazole-4-carboxamide] | 207 | 976 | – |
| CCO[C@H]1CC[C@H](n2cc(NC(=O)c3coc(-c4cn[nH]c4)n3)c(-c3nc(C(F)(F)F)ccc3F)n2)CC1 [Compound I-31, N-(1-((1r,4r)-4-ethoxycyclohexyl)-3-(3-fluoro-6-(trifluoromethyl)pyridin-2-yl)-1H-pyrazol-4-yl)-2-(1H-pyrazol-4-yl)oxazole-4-carboxamide] | 973 | 688 | – |
| CCO[C@H]1CC[C@H](n2cc(NC(=O)c3coc(-c4cn[nH]c4F)n3)c(-c3cnccn3)n2)CC1 [Compound I-32, N-(1-((1r,4r)-4-ethoxycyclohexyl)-3-(pyrazin-2-yl)-1H-pyrazol-4-yl)-2-(5-fluoro-1H-pyrazol-4-yl)oxazole-4-carboxamide] | 417 | – | EC50 ([1]; Table 2, IFNγ 50 ng/ml): 417 nM; EC50 ([2]; Table 1): 204 nM; EC50 ([2]; Table 2): 204 nM |
| O=C(Nc1cn([C@H]2C[C@H](N3CCOCC3)C2)nc1-c1cnccn1)c1coc(-c2cn[nH]c2)n1 [Compound I-33, N-(1-((1r,3r)-3-morpholinocyclobutyl)-3-(pyrazin-2-yl)-1H-pyrazol-4-yl)-2-(1H-pyrazol-4-yl)oxazole-4-carboxamide] | 23.4 | 59.1 | – |
| O=C(Nc1cn([C@H]2C[C@@H](N3CCOCC3)C2)nc1-c1cnccn1)c1coc(-c2cn[nH]c2)n1 [Compound I-34, N-(1-((1s,3s)-3-morpholinocyclobutyl)-3-(pyrazin-2-yl)-1H-pyrazol-4-yl)-2-(1H-pyrazol-4-yl)oxazole-4-carboxamide] | 18.8 | 7.8 | – |

More lines, main results first:

| EC50 ([1]; Table 1, IFNγ 50 ng/ml) [nM] | EC50 ([2]; Homo sapiens, Table 1) [nM] | SMILES | also measured |
| --- | --- | --- | --- |
| 64.1 | 15.8 | O=C(Nc1cn([C@H]2CC[C@H](O)CC2)nc1-c1cnccn1)c1coc(-c2cn[nH]c2)n1 [Compound I-27, N-(1-((1r,4r)-4-hydroxycyclohexyl)-3-(pyrazin-2-yl)-1H-pyrazol-4-yl)-2-(1H-pyrazol-4-yl)oxazole-4-carboxamide] | – |
| 6.5 | 2.8 | O=C(Nc1cn(C2CCC(N3CCOCC3)CC2)nc1-c1cnccn1)c1coc(-c2cn[nH]c2)n1 (centres unmarked) [Compound I-30, N-(1-((1r,4r)-4-morpholinocyclohexyl)-3-(pyrazin-2-yl)-1H-pyrazol-4-yl)-2-(1H-pyrazol-4-yl)oxazole-4-carboxamide] | – |
| 46.5 | 78 | O=C(Nc1cn(C2CCC(N3CCOCC3)CC2)nc1-c1cnccn1)c1coc(-c2c[nH]nc2F)n1 (centres unmarked) [Compound I-35, 2-(3-fluoro-1H-pyrazol-4-yl)-N-(1-((1r,4r)-4-morpholinocyclohexyl)-3-(pyrazin-2-yl)-1H-pyrazol-4-yl)oxazole-4-carboxamide formic acid salt] | – |
